Legend:
Assay in all cases: Kinase profiling in a biochemical assay panel (mobility shift assays and ELISA), %-inhibition at 1 μM; selectivity entropy
[1] = target: T1, panel of more than 300 wild-type and mutant kinases (313 kinase panel) (Homo sapiens, UniProt P52564)
T1 sequence (P52564 1-334): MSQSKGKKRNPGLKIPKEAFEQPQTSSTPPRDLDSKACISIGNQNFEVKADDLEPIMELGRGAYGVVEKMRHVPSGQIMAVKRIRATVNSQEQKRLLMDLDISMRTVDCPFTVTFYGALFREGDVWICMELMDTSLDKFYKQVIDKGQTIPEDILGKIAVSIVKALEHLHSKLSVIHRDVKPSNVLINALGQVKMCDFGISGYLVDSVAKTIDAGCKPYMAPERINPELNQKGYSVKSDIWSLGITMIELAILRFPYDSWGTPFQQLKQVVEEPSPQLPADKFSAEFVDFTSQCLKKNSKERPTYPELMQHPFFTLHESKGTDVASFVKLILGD

[2] = target: T2, panel of more than 300 wild-type and mutant kinases (313 kinase panel) (Homo sapiens, UniProt P30530)
T2 sequence (P30530 26-894): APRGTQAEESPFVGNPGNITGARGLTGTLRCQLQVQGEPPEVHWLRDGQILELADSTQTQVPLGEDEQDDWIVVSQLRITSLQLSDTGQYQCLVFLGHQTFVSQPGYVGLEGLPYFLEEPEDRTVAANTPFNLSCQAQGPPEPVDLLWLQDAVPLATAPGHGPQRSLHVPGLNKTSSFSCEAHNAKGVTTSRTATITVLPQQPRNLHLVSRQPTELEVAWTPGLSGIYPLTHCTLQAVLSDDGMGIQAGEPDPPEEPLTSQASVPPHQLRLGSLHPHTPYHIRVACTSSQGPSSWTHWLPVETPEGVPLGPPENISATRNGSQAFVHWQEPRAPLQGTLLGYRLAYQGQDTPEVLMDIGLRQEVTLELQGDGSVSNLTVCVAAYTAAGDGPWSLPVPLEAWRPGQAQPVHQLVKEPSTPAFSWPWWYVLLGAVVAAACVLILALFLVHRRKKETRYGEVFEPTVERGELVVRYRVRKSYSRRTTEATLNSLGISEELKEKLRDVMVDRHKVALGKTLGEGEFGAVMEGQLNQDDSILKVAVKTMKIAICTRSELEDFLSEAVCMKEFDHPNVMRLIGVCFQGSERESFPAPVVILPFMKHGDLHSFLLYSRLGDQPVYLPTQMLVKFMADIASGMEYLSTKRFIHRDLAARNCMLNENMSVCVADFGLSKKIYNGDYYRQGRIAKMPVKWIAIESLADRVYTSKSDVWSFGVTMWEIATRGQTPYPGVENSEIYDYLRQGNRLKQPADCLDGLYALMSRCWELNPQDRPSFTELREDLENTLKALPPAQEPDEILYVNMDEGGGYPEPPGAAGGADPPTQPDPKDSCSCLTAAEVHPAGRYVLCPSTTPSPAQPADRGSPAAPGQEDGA

[3] = target: panel of more than 300 wild-type and mutant kinases (313 kinase panel) (Homo sapiens, UniProt P50613)
Chain of panel of more than 300 wild-type and mutant kinases (313 kinase panel) (Homo sapiens, UniProt P50613) (P50613 whole entry, change not shown): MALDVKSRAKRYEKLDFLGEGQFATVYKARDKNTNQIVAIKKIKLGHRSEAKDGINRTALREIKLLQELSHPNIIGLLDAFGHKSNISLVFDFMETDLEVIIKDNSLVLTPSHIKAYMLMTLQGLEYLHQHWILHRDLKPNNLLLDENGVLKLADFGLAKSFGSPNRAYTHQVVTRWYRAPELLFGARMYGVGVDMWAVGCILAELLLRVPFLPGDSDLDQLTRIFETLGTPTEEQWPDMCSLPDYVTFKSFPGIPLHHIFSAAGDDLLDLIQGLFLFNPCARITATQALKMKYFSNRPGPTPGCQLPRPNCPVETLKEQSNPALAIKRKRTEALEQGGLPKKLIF

[4] = target: panel of more than 300 wild-type and mutant kinases (313 kinase panel) (Homo sapiens, UniProt P29376)
[5] = target: T3, panel of more than 300 wild-type and mutant kinases (313 kinase panel) (Homo sapiens, UniProt O43781)
T3 sequence (O43781 1-588): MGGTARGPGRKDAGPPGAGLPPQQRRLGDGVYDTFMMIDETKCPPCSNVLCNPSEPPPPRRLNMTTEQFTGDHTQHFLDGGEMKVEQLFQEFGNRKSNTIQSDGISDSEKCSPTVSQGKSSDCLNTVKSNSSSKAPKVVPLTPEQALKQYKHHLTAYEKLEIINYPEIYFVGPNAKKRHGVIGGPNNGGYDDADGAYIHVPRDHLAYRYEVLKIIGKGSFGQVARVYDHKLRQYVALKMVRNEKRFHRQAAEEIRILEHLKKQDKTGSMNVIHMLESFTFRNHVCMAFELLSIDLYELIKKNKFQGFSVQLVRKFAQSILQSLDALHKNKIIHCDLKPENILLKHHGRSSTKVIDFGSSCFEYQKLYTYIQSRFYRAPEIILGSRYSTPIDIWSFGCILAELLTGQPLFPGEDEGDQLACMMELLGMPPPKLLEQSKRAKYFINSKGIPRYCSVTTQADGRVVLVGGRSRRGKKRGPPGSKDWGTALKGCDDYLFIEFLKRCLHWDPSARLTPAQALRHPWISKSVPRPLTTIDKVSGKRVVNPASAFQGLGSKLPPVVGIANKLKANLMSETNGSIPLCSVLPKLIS

[6] = kinase MAP2K6, compound at 1 μM
[7] = kinase CDK7/CycH/MAT1, 1 μM compound

SMILES: CO[C@H]1C[C@@H]2CC[C@@H](C)[C@@](O)(O2)C(=O)C(=O)N2CCCC[C@H]2C(=O)O[C@H]([C@H](C)C[C@@H]2CC[C@@H](OCCO)[C@H](OC)C2)CC(=O)[C@H](C)/C=C(\C)[C@@H](O)[C@@H](OC)C(=O)[C@H](C)C[C@H](C)/C=C/C=C/C=C/1C [everolimus]
- %-inhibition of MAP2K6 [1, 6]: 13%
- %-inhibition, AXL ([2]; kinase AXL, 1 μM compound): -1.68%
- %-inhibition, CDK7/CycH/MAT1 [3, 7]: -6%
- %-inhibition of LTK ([4]; kinase LTK, compound at 1 μM): -12%
- %-inhibition of DYRK3 ([5]; kinase DYRK3, compound at 1 μM): -11%

SMILES: CCN(CC)CCNC(=O)c1c(C)[nH]c(/C=C2\C(=O)Nc3ccc(F)cc32)c1C [sunitinib]
- %-inhibition, AXL ([2]; kinase AXL, 1 μM compound): 98%
- %-inhibition of LTK ([4]; kinase LTK, compound at 1 μM): 81%

SMILES: CC(=O)Nc1cccc(-n2c(=O)n(C3CC3)c(=O)c3c(Nc4ccc(I)cc4F)n(C)c(=O)c(C)c32)c1 [trametinib]
- %-inhibition of MAP2K6 [1, 6]: -21%
- %-inhibition, AXL ([2]; kinase AXL, 1 μM compound): -1.12%
- %-inhibition, CDK7/CycH/MAT1 [3, 7]: -6%
- %-inhibition of LTK ([4]; kinase LTK, compound at 1 μM): -7%
- %-inhibition of DYRK3 ([5]; kinase DYRK3, compound at 1 μM): -10%

SMILES: CN(C)C/C=C/C(=O)Nc1cc2c(Nc3ccc(F)c(Cl)c3)ncnc2cc1O[C@H]1CCOC1 [afatinib]
- %-inhibition of DYRK3 ([5]; kinase DYRK3, compound at 1 μM): 29%

SMILES: O=S(=O)(c1cccc2cnccc12)N1CCCNCC1 [fasudil]
- %-inhibition of MAP2K6 [1, 6]: 2.2%
- %-inhibition, AXL ([2]; kinase AXL, 1 μM compound): 2.62%
- %-inhibition, CDK7/CycH/MAT1 [3, 7]: 7.49%
- %-inhibition of LTK ([4]; kinase LTK, compound at 1 μM): -3.76%
- %-inhibition of DYRK3 ([5]; kinase DYRK3, compound at 1 μM): 26%

SMILES: N#CC[C@H](C1CCCC1)n1cc(-c2ncnc3[nH]ccc23)cn1 [ruxolitinib]
- %-inhibition of MAP2K6 [1, 6]: 44%
- %-inhibition, AXL ([2]; kinase AXL, 1 μM compound): 12%
- %-inhibition, CDK7/CycH/MAT1 ([3]; 1 µM): 3.25%
- %-inhibition of LTK ([4]; kinase LTK, compound at 1 μM): 97%
- %-inhibition of DYRK3 ([5]; kinase DYRK3, compound at 1 μM): -9%

SMILES: COc1cc2nccc(Oc3ccc(NC(=O)C4(C(=O)Nc5ccc(F)cc5)CC4)cc3)c2cc1OC [cabozantinib]
- %-inhibition of MAP2K6 [1, 6]: 83%
- %-inhibition, AXL ([2]; kinase AXL, 1 μM compound): 100%
- %-inhibition, CDK7/CycH/MAT1 [3, 7]: -10%
- %-inhibition of LTK ([4]; kinase LTK, compound at 1 μM): 61%
- %-inhibition of DYRK3 ([5]; kinase DYRK3, compound at 1 μM): 4%

SMILES: CC(C)(C)c1nc(-c2cccc(NS(=O)(=O)c3c(F)cccc3F)c2F)c(-c2ccnc(N)n2)s1 [dabrafenib]
- %-inhibition of MAP2K6 [1, 6]: 1.34%
- %-inhibition, AXL ([2]; kinase AXL, 1 μM compound): 30%
- %-inhibition of LTK ([4]; kinase LTK, compound at 1 μM): 2.67%
- %-inhibition of DYRK3 ([5]; kinase DYRK3, compound at 1 μM): -5.68%

SMILES: C[C@@H](Oc1cc(-c2cnn(C3CCNCC3)c2)cnc1N)c1c(Cl)ccc(F)c1Cl [crizotinib]
- %-inhibition of MAP2K6 [1, 6]: 19%
- %-inhibition, CDK7/CycH/MAT1 [3, 7]: 58%
- %-inhibition of DYRK3 ([5]; kinase DYRK3, compound at 1 μM): 14%

SMILES: CCCS(=O)(=O)Nc1ccc(F)c(C(=O)c2c[nH]c3ncc(-c4ccc(Cl)cc4)cc23)c1F [vemurafenib]
- %-inhibition of MAP2K6 [1, 6]: 31%
- %-inhibition, AXL ([2]; kinase AXL, 1 μM compound): 20%
- %-inhibition, CDK7/CycH/MAT1 [3, 7]: 0.137%
- %-inhibition of LTK ([4]; kinase LTK, compound at 1 μM): 2.6%
- %-inhibition of DYRK3 ([5]; kinase DYRK3, compound at 1 μM): 5%

SMILES: COc1cc2c(Nc3ccc(Br)cc3F)ncnc2cc1OCC1CCN(C)CC1 [vandetanib]
- %-inhibition of MAP2K6 [1, 6]: 18%
- %-inhibition, CDK7/CycH/MAT1 [3, 7]: -4.26%
- %-inhibition of DYRK3 ([5]; kinase DYRK3, compound at 1 μM): -5%

SMILES: C#Cc1cccc(Nc2ncnc3cc(OCCOC)c(OCCOC)cc23)c1 [erlotinib]
- %-inhibition of MAP2K6 ([1]; 1 µM): 6%
- %-inhibition, AXL ([2]; 1 µM): 18%
- %-inhibition, CDK7/CycH/MAT1 ([3]; 1 µM): 1.22%
- %-inhibition of LTK ([4]; 1 µM): 41%
- %-inhibition of DYRK3 ([5]; 1 µM): 22%

SMILES: CNC(=O)c1cc(Oc2ccc(NC(=O)Nc3ccc(Cl)c(C(F)(F)F)c3)c(F)c2)ccn1 [regorafenib]
- %-inhibition of MAP2K6 [1, 6]: 93%
- %-inhibition, AXL ([2]; kinase AXL, 1 μM compound): 29%
- %-inhibition, CDK7/CycH/MAT1 [3, 7]: -3%
- %-inhibition of LTK ([4]; kinase LTK, compound at 1 μM): -1.56%
- %-inhibition of DYRK3 ([5]; kinase DYRK3, compound at 1 μM): 15%

SMILES: Cc1ccc(C(=O)Nc2ccc(CN3CCN(C)CC3)c(C(F)(F)F)c2)cc1C#Cc1cnc2cccnn12 [ponatinib]
- %-inhibition, AXL ([2]; kinase AXL, 1 μM compound): 70%
- %-inhibition, CDK7/CycH/MAT1 [3, 7]: 9%
- %-inhibition of LTK ([4]; kinase LTK, compound at 1 μM): 85%
- %-inhibition of DYRK3 ([5]; kinase DYRK3, compound at 1 μM): 50%

SMILES: Cc1ccc(Nc2nccc(N(C)c3ccc4c(C)n(C)nc4c3)n2)cc1S(N)(=O)=O [pazopanib]
- %-inhibition of MAP2K6 [1, 6]: 78%
- %-inhibition, AXL ([2]; kinase AXL, 1 μM compound): 24%
- %-inhibition, CDK7/CycH/MAT1 [3, 7]: 9%
- %-inhibition of LTK ([4]; kinase LTK, compound at 1 μM): 27%
- %-inhibition of DYRK3 ([5]; kinase DYRK3, compound at 1 μM): -4.54%

SMILES: CO[C@H]1C[C@@H]2CC[C@@H](C)[C@@](O)(O2)C(=O)C(=O)N2CCCC[C@H]2C(=O)O[C@H]([C@H](C)C[C@@H]2CC[C@@H](OC(=O)C(C)(CO)CO)[C@H](OC)C2)CC(=O)[C@H](C)/C=C(\C)[C@@H](O)[C@@H](OC)C(=O)[C@H](C)C[C@H](C)/C=C/C=C/C=C/1C [temsirolimus]
- %-inhibition of MAP2K6 [1, 6]: 15%
- %-inhibition, AXL ([2]; kinase AXL, 1 μM compound): -1.78%
- %-inhibition, CDK7/CycH/MAT1 [3, 7]: -8%
- %-inhibition of LTK ([4]; kinase LTK, compound at 1 μM): -10%
- %-inhibition of DYRK3 ([5]; kinase DYRK3, compound at 1 μM): -0.454%

SMILES: Cc1cn(-c2cc(NC(=O)c3ccc(C)c(Nc4nccc(-c5cccnc5)n4)c3)cc(C(F)(F)F)c2)cn1 [nilotinib]
- %-inhibition of MAP2K6 [1, 6]: 84%
- %-inhibition, AXL ([2]; kinase AXL, 1 μM compound): -4.75%
- %-inhibition, CDK7/CycH/MAT1 [3, 7]: -2.34%
- %-inhibition of LTK ([4]; kinase LTK, compound at 1 μM): 7.51%
- %-inhibition of DYRK3 ([5]; kinase DYRK3, compound at 1 μM): -1.09%

SMILES: Cc1nc(Nc2ncc(C(=O)Nc3c(C)cccc3Cl)s2)cc(N2CCN(CCO)CC2)n1 [dasatinib]
- %-inhibition of MAP2K6 [1, 6]: 47%

SMILES: COc1cc(Nc2c(C#N)cnc3cc(OCCCN4CCN(C)CC4)c(OC)cc23)c(Cl)cc1Cl [bosutinib]
- %-inhibition, CDK7/CycH/MAT1 [3, 7]: -4.35%
- %-inhibition of LTK ([4]; kinase LTK, compound at 1 μM): 59%
- %-inhibition of DYRK3 ([5]; kinase DYRK3, compound at 1 μM): 12%

SMILES: CS(=O)(=O)CCNCc1ccc(-c2ccc3ncnc(Nc4ccc(OCc5cccc(F)c5)c(Cl)c4)c3c2)o1 [lapatinib]
- %-inhibition of MAP2K6 ([1]; 1 µM): 9%
- %-inhibition, AXL ([2]; 1 µM): 19%
- %-inhibition, CDK7/CycH/MAT1 [3, 7]: 2%
- %-inhibition of LTK ([4]; kinase LTK, compound at 1 μM): 4.66%
- %-inhibition of DYRK3 ([5]; kinase DYRK3, compound at 1 μM): -2.24%

From paper PMC3961306, “Comparison of the Cancer Gene Targeting and Biochemical Selectivities of All Targeted Kinase Inhibitors Approved for Clinical Use” (PLoS ONE, 2014)
